Consider two compounds from ChEMBL document CHEMBL4385643, “Design of a brain-penetrant CDK4/6 inhibitor for glioblastoma” (Bioorg Med Chem Lett, 2019).

The target of assay [1] is Ephrin type-B receptor 1 (Homo sapiens) (UniProt P54762). As to the kind of experiment: Inhibition of recombinant human GST-tagged EPHB1 catalytic domain (613 to 881 residues) expressed in baculovirus expression system at 0.1 uM using tyrosine-2 peptide as substrate incubated for 60 mins by Z'-LYTE assay relative to control.
Assay [2] deals with TAK1/TAB1 (Homo sapiens) (UniProt Q15750+O43318). Nature of the assay: Inhibition of tracer 222 binding to recombinant human His-tagged TAK1-TAB1 catalytic domain (437 to 504 residues) expressed in baculovirus expression system at 0.1 uM measured after 60 mins by Lanthascreen assay relative to control.
For assay [3], the target named is Tyrosine-protein kinase JAK1 (Homo sapiens) (UniProt P23458). As to the kind of experiment: Inhibition of recombinant human GST-tagged JAK1 catalytic domain (866 to 1154 residues) expressed in baculovirus expression system at 0.1 uM using tyrosine-6 peptide as substrate incubated for 60 mins by Z'-LYTE assay relative to control.
The target in assay [4] is STE20-like serine/threonine-protein kinase (Homo sapiens) (UniProt Q9H2G2). Nature of the assay: Inhibition of tracer 236 binding to recombinant full length human GST-tagged SLK expressed in baculovirus expression system at 0.1 uM measured after 60 mins by Lanthascreen assay relative to control. A general note: In TR-FRET formats the signal depends on donor and acceptor labels being close together.

For assay [5], the target named is Dual specificity tyrosine-phosphorylation-regulated kinase 1A (Homo sapiens) (UniProt Q13627). Nature of the assay: Inhibition of recombinant full length human GST-tagged DYRK1A expressed in baculovirus expression system at 0.1 uM using serine/threonine-18 peptide as substrate incubated for 60 mins by Z'-LYTE assay relative to control.
Assay [6] addresses Tyrosine-protein kinase Mer (Homo sapiens) (UniProt Q12866). Nature of the assay: Inhibition of recombinant human GST-tagged MER (578 to 872 residues) expressed in baculovirus expression system at 0.1 uM using tyrosine-2 peptide as substrate incubated for 60 mins by Z'-LYTE assay relative to control.
The target of assay [7] is 5'-AMP-activated protein kinase catalytic subunit alpha-1 (Homo sapiens) (UniProt Q13131). As to the kind of experiment: Inhibition of recombinant full length human PRKAA1 expressed in baculovirus expression system at 0.1 uM using CREBtide as substrate 60 mins by Lanthascreen assay relative to control.
The target in assay [8] is Ephrin type-A receptor 8 (Homo sapiens) (UniProt P29322). Nature of the assay: Inhibition of recombinant human GST-tagged EPHA8 catalytic domain (565 to 1005 residues) expressed in baculovirus expression system at 0.1 uM using tyrosine-2 peptide as substrate incubated for 60 mins by Z'-LYTE assay relative to control.
Assay [9] concerns the target MAP kinase-activated protein kinase 2 (Homo sapiens) (UniProt P49137). Nature of the assay: Inhibition of recombinant full length human His-tagged MAPKAPK2 expressed in Escherichia coli expression system at 0.1 uM using serine/threonine-4 peptide as substrate incubated for 60 mins by Z'-LYTE assay relative to control.
For assay [10], the target named is Mitogen-activated protein kinase kinase kinase 8 (Homo sapiens) (UniProt P41279). As to the kind of experiment: Inhibition of recombinant human GST-tagged TPL2 catalytic domain (30 to 397 residues) expressed in baculovirus expression system at 0.1 uM using serine/threonine-3 peptide as substrate incubated for 60 mins by Z'-LYTE assay relative to control.
The target in assay [11] is Casein kinase I isoform alpha (Homo sapiens) (UniProt P48729). As to the kind of experiment: Inhibition of recombinant full length human GST-tagged CK1alpha1 expressed in baculovirus expression system at 0.1 uM using serine/threonine-11 peptide as substrate incubated for 60 mins by Z'-LYTE assay relative to control.
Assay [12] concerns the target Protein kinase C delta type (Homo sapiens) (UniProt Q05655). As to the kind of experiment: Inhibition of recombinant full length human GST-tagged PKCdelta expressed in insect expression system at 0.1 uM using serine/threonine-7 peptide as substrate incubated for 60 mins by Z'-LYTE assay relative to control.
In assay [13] the target is Focal adhesion kinase 1 (Homo sapiens) (UniProt Q05397). Nature of the assay: Inhibition of recombinant full length human GST-tagged FAK expressed in baculovirus expression system at 0.1 uM using tyrosine-7 peptide as substrate incubated for 60 mins by Z'-LYTE assay relative to control.
Assay [14] concerns the target Proto-oncogene tyrosine-protein kinase ROS (Homo sapiens) (UniProt P08922). Nature of the assay: Inhibition of recombinant human GST-tagged ROS1 catalytic domain (1883 to 2347 residues) expressed in baculovirus expression system at 0.1 uM using tyrosine-2 peptide as substrate incubated for 60 mins by Z'-LYTE assay relative to control.
Assay [15] has as its target Phosphatidylinositol 4,5-bisphosphate 3-kinase catalytic subunit alpha isoform (Homo sapiens) (UniProt P42336). Nature of the assay: Inhibition of recombinant full length human GST-tagged PI3Kalpha expressed in baculovirus expression system at 0.1 uM using PI Lipid Kinase as substrate incubated for 60 mins by Adapta assay relative to control.
The target of assay [16] is SRSF protein kinase 3 (Homo sapiens) (UniProt Q9UPE1). Nature of the assay: Inhibition of recombinant full length human GST-tagged MSSK1 expressed in baculovirus expression system at 0.1 uM using serine/threonine-18 peptide as substrate incubated for 60 mins by Z'-LYTE assay relative to control.
Assay [17] deals with Calcium/calmodulin-dependent protein kinase type 1 (Homo sapiens) (UniProt Q14012). Nature of the assay: Inhibition of recombinant full length human His-tagged CAMK1 expressed in baculovirus expression system at 0.1 uM using ZIPtide peptide as substrate incubated for 60 mins by Adapta assay relative to control.
In assay [18] the target is CDK17/Cyclin-Y (Homo sapiens) (UniProt Q00537+Q8ND76). As to the kind of experiment: Inhibition of recombinant full length human GST-tagged CDK17/Cyclin Y (2 to end amino acids) expressed in insect expression system at 0.1 uM using serine/threonine-12 peptide as substrate incubated for 60 mins by Z'-LYTE assay relative to control.
Assay [19] deals with Vascular endothelial growth factor receptor 2 (Homo sapiens) (UniProt P35968). Nature of the assay: Inhibition of recombinant human His-tagged KDR (789 to 1356 residues) expressed in baculovirus expression system at 0.1 uM using tyrosine-1 peptide as substrate incubated for 60 mins by Z'-LYTE assay relative to control.
The target in assay [20] is Serine/threonine-protein kinase B-raf (Homo sapiens) (UniProt P15056). Nature of the assay: Inhibition of recombinant full length human GST-tagged BRAF expressed in baculovirus expression system at 0.1 uM using serine/threonine-3 peptide as substrate incubated for 60 mins by Z'-LYTE assay relative to control.
Assay [21] has as its target Protein kinase C zeta type (Homo sapiens) (UniProt Q05513). Nature of the assay: Inhibition of recombinant full length human PKCzeta expressed in baculovirus expression system at 0.1 uM using serine/threonine-7 peptide as substrate incubated for 60 mins by Z'-LYTE assay relative to control.
The target in assay [22] is Serine/threonine-protein kinase Chk1 (Homo sapiens) (UniProt O14757). Nature of the assay: Inhibition of recombinant full length human His-tagged CHK1 expressed in baculovirus expression system at 0.1 uM using serine/threonine-19 peptide as substrate incubated for 60 mins by Z'-LYTE assay relative to control.
Assay [23] addresses MAP kinase-interacting serine/threonine-protein kinase 2 (Homo sapiens) (UniProt Q9HBH9). Nature of the assay: Inhibition of tracer 236 binding to full length human GST-tagged MKNK2 expressed in baculovirus expression system at 0.1 uM measured after 60 mins by Lanthascreen assay relative to control.

Chain of SRSF protein kinase 3 (Homo sapiens) (Q9UPE1 whole entry): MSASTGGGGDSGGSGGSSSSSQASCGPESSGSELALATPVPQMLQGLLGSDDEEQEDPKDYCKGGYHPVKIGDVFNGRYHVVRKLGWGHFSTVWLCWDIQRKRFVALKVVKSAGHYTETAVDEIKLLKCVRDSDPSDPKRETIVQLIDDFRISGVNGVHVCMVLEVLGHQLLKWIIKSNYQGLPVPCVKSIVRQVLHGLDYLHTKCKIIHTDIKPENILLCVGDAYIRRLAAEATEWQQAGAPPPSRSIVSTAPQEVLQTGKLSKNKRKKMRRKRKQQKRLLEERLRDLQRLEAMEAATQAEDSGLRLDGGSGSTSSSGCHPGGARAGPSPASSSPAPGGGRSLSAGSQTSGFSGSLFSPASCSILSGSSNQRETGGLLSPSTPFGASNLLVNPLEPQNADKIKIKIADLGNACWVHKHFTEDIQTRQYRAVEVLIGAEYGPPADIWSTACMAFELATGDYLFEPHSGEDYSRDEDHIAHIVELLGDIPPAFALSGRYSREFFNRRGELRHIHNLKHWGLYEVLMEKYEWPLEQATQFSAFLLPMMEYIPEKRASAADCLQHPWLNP
Chain of Serine/threonine-protein kinase B-raf (Homo sapiens) (P15056 whole entry): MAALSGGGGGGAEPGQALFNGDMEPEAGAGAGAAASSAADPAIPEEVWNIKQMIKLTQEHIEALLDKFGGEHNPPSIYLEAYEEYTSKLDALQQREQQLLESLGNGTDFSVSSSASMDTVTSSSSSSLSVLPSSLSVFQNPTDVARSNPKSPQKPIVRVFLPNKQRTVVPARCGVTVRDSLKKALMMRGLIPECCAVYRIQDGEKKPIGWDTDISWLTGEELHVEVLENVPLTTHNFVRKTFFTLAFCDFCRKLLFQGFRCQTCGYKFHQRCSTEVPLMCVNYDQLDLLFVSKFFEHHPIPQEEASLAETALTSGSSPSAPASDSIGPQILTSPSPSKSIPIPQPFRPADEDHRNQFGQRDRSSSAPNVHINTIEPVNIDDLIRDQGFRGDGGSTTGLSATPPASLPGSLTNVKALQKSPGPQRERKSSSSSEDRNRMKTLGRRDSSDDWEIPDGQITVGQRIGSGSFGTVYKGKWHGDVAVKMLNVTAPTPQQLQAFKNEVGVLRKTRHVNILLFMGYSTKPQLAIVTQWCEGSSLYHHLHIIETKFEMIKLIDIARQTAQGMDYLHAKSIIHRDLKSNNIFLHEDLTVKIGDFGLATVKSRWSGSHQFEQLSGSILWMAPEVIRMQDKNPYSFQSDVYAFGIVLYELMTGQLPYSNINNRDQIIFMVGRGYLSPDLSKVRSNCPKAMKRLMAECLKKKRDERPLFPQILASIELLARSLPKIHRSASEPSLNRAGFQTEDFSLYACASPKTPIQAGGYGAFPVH
Chain of Proto-oncogene tyrosine-protein kinase ROS (Homo sapiens) (P08922 whole entry, the tested form may be a part, canonical isoform): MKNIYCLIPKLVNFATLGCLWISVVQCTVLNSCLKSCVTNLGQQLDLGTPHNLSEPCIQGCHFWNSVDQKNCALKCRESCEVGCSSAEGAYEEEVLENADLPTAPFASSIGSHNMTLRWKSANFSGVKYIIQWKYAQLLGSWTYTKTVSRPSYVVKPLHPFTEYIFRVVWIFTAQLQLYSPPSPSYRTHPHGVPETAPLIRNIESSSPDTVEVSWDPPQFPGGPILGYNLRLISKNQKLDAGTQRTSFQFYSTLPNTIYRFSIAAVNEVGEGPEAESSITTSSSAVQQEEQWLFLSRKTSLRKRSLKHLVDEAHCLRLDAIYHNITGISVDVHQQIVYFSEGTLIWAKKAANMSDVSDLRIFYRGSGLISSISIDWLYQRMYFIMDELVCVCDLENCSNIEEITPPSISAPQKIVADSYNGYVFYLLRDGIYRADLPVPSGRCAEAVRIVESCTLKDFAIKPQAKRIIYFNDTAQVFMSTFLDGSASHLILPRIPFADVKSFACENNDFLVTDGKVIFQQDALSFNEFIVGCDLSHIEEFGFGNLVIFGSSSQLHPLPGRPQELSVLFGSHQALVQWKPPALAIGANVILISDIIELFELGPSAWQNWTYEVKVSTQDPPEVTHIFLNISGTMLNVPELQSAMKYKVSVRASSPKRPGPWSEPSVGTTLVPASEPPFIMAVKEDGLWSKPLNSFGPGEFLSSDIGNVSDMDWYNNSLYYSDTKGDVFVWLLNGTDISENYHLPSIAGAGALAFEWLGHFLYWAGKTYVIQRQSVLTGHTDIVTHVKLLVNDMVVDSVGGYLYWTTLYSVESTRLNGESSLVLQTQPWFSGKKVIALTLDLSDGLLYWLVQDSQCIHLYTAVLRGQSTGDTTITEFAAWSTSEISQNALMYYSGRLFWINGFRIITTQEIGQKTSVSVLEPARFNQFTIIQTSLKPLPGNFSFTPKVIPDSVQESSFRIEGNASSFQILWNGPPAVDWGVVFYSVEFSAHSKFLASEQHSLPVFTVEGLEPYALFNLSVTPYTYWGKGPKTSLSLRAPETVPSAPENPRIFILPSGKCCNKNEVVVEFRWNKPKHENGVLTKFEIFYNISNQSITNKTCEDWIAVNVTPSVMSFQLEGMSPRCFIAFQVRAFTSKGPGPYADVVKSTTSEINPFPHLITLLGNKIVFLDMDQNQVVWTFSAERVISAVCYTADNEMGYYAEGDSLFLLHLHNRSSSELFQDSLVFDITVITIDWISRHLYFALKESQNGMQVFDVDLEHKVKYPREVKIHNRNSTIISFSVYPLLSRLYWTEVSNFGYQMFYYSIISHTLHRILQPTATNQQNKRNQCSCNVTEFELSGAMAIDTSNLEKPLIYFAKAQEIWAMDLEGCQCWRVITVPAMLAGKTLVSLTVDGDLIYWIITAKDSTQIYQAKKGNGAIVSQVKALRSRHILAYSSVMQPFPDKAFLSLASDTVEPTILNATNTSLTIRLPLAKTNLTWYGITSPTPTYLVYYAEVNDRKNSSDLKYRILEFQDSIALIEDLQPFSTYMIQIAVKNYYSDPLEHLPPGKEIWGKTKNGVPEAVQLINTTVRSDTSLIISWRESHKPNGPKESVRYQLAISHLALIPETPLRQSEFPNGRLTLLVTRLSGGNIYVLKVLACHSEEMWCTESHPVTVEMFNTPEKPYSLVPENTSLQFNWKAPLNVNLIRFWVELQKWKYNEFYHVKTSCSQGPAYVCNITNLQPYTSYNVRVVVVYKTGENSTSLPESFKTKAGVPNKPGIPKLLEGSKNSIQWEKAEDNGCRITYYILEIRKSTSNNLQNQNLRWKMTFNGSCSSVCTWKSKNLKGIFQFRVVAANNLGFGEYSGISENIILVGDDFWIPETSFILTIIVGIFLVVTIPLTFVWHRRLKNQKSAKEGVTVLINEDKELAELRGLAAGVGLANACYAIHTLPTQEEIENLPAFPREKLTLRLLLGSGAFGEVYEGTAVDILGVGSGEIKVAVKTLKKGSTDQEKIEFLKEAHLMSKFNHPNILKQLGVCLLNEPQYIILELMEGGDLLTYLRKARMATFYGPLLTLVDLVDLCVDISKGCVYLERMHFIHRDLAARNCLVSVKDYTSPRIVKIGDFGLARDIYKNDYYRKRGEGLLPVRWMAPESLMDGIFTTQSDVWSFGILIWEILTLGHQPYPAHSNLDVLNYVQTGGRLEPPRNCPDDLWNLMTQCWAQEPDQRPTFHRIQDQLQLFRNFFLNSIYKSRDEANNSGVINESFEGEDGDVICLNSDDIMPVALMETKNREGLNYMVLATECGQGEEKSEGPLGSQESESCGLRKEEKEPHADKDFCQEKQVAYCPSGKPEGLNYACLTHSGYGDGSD
Chain of CDK17/Cyclin-Y (Homo sapiens) (Q00537 whole entry, the tested form may be a part): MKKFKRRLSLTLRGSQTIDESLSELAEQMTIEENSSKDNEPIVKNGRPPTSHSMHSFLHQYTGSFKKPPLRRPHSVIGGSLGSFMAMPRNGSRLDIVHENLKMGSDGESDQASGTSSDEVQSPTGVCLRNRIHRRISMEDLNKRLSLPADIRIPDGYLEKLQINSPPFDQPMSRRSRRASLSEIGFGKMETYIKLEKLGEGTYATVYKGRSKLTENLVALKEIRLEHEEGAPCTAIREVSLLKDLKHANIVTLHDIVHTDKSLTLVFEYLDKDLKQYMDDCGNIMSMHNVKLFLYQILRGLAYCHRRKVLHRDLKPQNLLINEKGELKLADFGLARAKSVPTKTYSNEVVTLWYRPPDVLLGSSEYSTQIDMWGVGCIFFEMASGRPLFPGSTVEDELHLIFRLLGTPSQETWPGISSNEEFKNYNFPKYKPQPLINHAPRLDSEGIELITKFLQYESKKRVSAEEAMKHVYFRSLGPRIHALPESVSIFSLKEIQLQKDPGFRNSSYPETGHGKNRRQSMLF
Chain of CDK17/Cyclin-Y (Homo sapiens) (Q8ND76 2-341 partner limits assumed): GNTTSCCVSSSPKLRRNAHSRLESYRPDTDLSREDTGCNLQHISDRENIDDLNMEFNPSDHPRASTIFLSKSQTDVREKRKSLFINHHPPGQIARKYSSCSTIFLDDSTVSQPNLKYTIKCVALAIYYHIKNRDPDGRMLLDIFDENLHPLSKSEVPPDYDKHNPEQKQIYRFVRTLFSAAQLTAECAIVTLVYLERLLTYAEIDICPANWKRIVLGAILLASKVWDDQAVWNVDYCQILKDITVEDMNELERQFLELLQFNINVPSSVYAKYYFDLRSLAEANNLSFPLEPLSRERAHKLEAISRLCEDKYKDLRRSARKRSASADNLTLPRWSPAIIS
Chain of Calcium/calmodulin-dependent protein kinase type 1 (Homo sapiens) (Q14012 whole entry, looked up): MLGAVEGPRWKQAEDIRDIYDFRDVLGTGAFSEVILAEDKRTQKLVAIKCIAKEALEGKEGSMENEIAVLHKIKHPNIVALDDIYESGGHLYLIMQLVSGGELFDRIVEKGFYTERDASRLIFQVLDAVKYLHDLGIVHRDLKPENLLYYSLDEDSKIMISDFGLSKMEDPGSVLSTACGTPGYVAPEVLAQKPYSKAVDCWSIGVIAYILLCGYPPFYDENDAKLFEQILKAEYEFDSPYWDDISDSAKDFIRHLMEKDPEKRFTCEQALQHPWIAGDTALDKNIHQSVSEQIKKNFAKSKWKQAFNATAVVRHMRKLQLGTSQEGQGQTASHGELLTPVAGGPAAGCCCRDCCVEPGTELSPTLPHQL

In the case of `CCN1CCN(Cc2ccc(Nc3ncc(F)c(-c4cc(F)c5nc(C)n(C(C)C)c5c4)n3)nc2)CC1` [ABEMACICLIB], the inhibition (usually the relative decrease from the control value, in per cent) amounted to 0.5% in assay [1]; 57.1% in [2]; 2% in assay [3]; 9.3% in assay [4]; 92.5% in assay [5]; 20.5% in assay [6]. Moreover, the inhibition in [7] worked out at 13.5%; in assay [8] it was 1%; in assay [9] it was 14.5%; in assay [10], 11%; in assay [11], 4.5%; in [12], 48.5%. Besides, the inhibition turned out to be 15.5% in [13]; 59.5% in assay [14]; 4% in [15]; 3.5% in [16]; 26.7% in assay [17]; 58% in [18]. For the same compound, the inhibition in assay [19] is 4.5%; in [20], 4.5%; in assay [21], 12%; in assay [22], -4.5%; in [23], 18.3%.

In the case of `CCN1CC2(C1)CN(c1ccc(Nc3ncc(F)c(-c4cnn5c4[C@H](C)CCCC5)n3)nc1)C2`, the inhibition in assay [1] worked out at 8%; in [2] it was 87.5%; in [3], 5%; in assay [4], 10.5%; in assay [5], 26.5%; in assay [6] it was 4%. Moreover, the inhibition in assay [7] was 10%; in assay [8], 3.5%; in assay [9], 4.5%; in assay [10] it was 26%; in assay [11], 1.5%; in assay [12], 23.5%. The inhibition in assay [13] came to 19.5%; in assay [14], 57.5%; in assay [15], 1.5%; in assay [16], 9%; in assay [17], 10.5%; in assay [18], 61.5%. Further, the inhibition is 17.5% in [19]; 4% in [20]; -3% in assay [21]; 9% in assay [22]; 75% in [23].
